Earlier results, collected in patent US10561625B2, “Methods of treatment using sustained release sotalol formulations” (The Roshni Singh 2015 Trust, priority 2004, dated 2020).
Where a name gives a salt, the structure may show the parent alone.

Key:
[1] = not given; remark: listed apart in the source

Structure (SMILES)	solubility in water	elimination (exclusively renal) half-life ([1]; administered twice daily) [h]	peak plasma concentration (time) ([1]; after a dose of the current formulation) [h]	mean elimination half-life ([1]; current formulation)	bioavailability ([1]; in vivo) [%]	absorbed after oral ingestion ([1]; oral, no first-pass hepatic metabolism) [%]	plasma half-life ([1]; in vivo) [h]
CC(C)NCC(O)c1ccc(NS(C)(=O)=O)cc1 (racemic) [Sotalol, 4′-(2-isopropylaminoethyl-1-hydroxy) methanesulphonanilide hydrochloride]	freely soluble in water	8 to 12	2 to 3	about 12 hours	100	100	–
COCCc1ccc(OCC(O)CNC(C)C)cc1 (centres unmarked) [Metoprolol]	freely soluble in water	–	–	–	–	–	2.5 to 9.5
